Measurements taken from PubChem BioAssay AID330 (DTP/NCI, 2004).
“And” between values parts separate entries of the source, which are not always exact repeats. Identical values can stand only once. Toxic doses and inconclusive results are not listed. Rule for the calls: active = survival T/C of 150% or more; inactive = T/C below 125% in these data.

System: P388 leukemia ip, CD2F1 mice, survival T/C
Experiment: NCI In Vivo Anticancer Drug Screen. Data for tumor model P388 Leukemia (intraperitoneal) in CD2F1 (CDF1) mice
Details: endpoint: median survival time, higher = longer survival
In short: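 Mice carrying the transplanted tumor received test compound or vehicle. Survival was recorded in each group, and the value is the treated-group measurement divided by that of the vehicle-treated control group.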

[1] = dose: 12.5 mg/kg/injection, schedule: Q01DX009 (ip), vehicle: saline
[2] = dose: 25.0 mg/kg/injection, schedule: Q01DX009 (ip), vehicle: saline
[3] = dose: 50.0 mg/kg/injection, schedule: Q01DX009 (ip), vehicle: saline with Tween-80
[4] = dose: 100.0 mg/kg/injection, schedule: Q01DX009 (ip), vehicle: saline with Tween-80
[5] = dose: 200.0 mg/kg/injection, schedule: Q01DX009 (ip), vehicle: saline with Tween-80
[6] = dose: 25.0 mg/kg/injection, schedule: Q01DX009 (ip), vehicle: saline with Tween-80
[7] = dose: 6.25 mg/kg/injection, schedule: Q01DX009 (ip), vehicle: saline with Tween-80
[8] = dose: 12.5 mg/kg/injection, schedule: Q01DX009 (ip), vehicle: saline with Tween-80
[9] = dose: 50.0 mg/kg/injection, schedule: Q01DX005 (ip), vehicle: Klucel (hydroxypropylcellulose) (HPC)
[10] = dose: 100.0 mg/kg/injection, schedule: Q01DX005 (ip), vehicle: Klucel (hydroxypropylcellulose) (HPC)
[11] = dose: 50.0 mg/kg/injection, schedule: Q01DX009 (ip), vehicle: saline

Measured: T/C

C[N+](C)(C)CCBr
inactive: dose: 3.12 mg/kg/injection, schedule: Q01DX009 (ip), vehicle: saline 100 % of control | dose: 6.25 mg/kg/injection, schedule: Q01DX009 (ip), vehicle: saline 104 % of control | [1] 101 % of control | dose: 12.5 mg/kg/injection, schedule: Q04DX003 (ip), vehicle: saline 105 % of control | [2] 101 % of control | dose: 25.0 mg/kg/injection, schedule: Q04DX003 (ip), vehicle: saline 100 % of control

CC(=O)/C(C=NC1CC(N=C/C(C(C)=O)=C(/C)O)CC(N=C/C(C(C)=O)=C(/C)O)C1)=C(/C)O (configuration not stated)
inactive: [3] 101 % of control | [4] 101 % of control | [5] 93 % of control

C1CCC(NC2CCCCC2)CC1
inactive: dose: 12.5 mg/kg/injection, schedule: Q01DX005 (ip), vehicle: saline 103 % of control | dose: 23.7 mg/kg/injection, schedule: Q01DX005 (ip), vehicle: saline 100 % of control | dose: 25.0 mg/kg/injection, schedule: Q01DX005 (ip), vehicle: saline 102 % of control | dose: 35.6 mg/kg/injection, schedule: Q01DX005 (ip), vehicle: saline 100 % of control | dose: 50.0 mg/kg/injection, schedule: Q01DX005 (ip), vehicle: saline 100 % of control | dose: 53.3 mg/kg/injection, schedule: Q01DX005 (ip), vehicle: saline 100 % of control | dose: 80.0 mg/kg/injection, schedule: Q01DX005 (ip), vehicle: saline 100 % of control | dose: 100.0 mg/kg/injection, schedule: Q01DX005 (ip), vehicle: saline 93 % of control | dose: 200.0 mg/kg/injection, schedule: Q01DX005 (ip), vehicle: saline 102 % of control

CC(C)CCc1cc(O)ccc1O
inactive: [6] 114 % of control | [3] 101 % of control | [4] 98 % of control | [5] 97 % of control

C#CCC(C(=O)OC)N(CC)CC (configuration not stated)
inactive: dose: 60.0 mg/kg/injection, schedule: Q01DX005 (ip), vehicle: saline 107 % of control | dose: 120.0 mg/kg/injection, schedule: Q01DX005 (ip), vehicle: saline 111 % of control | dose: 240.0 mg/kg/injection, schedule: Q01DX005 (ip), vehicle: saline 120 % of control

COC1C(O)C(C)OC(OC2C(Oc3cccc4c(O)c5c(=O)oc6ccc(C)c7c(=O)oc(c34)c5c67)OC(C)C(O)C2O)C1O (configuration not stated)
inactive: dose: 0.5 mg/kg/injection, schedule: Q01DX009 (ip), vehicle: saline with Tween-80 108 % of control | dose: 12.5 mg/kg/injection, schedule: Q01DX001 (sc), vehicle: Klucel (hydroxypropylcellulose) (HPC) 100 % of control | dose: 12.5 mg/kg/injection, schedule: Q01DX001 (sc), vehicle: other 97 % of control | dose: 12.5 mg/kg/injection, schedule: Q01DX005 (sc), vehicle: Klucel (hydroxypropylcellulose) (HPC) 98 % of control | dose: 12.5 mg/kg/injection, schedule: Q01DX005 (sc), vehicle: other 101 % of control | dose: 25.0 mg/kg/injection, schedule: Q01DX001 (sc), vehicle: Klucel (hydroxypropylcellulose) (HPC) 102 % of control | dose: 25.0 mg/kg/injection, schedule: Q01DX001 (sc), vehicle: other 100 % of control | dose: 25.0 mg/kg/injection, schedule: Q01DX005 (sc), vehicle: Klucel (hydroxypropylcellulose) (HPC) 97 % of control | dose: 25.0 mg/kg/injection, schedule: Q01DX005 (sc), vehicle: other 92 % of control | dose: 50.0 mg/kg/injection, schedule: Q01DX001 (sc), vehicle: Klucel (hydroxypropylcellulose) (HPC) 98 % of control | dose: 50.0 mg/kg/injection, schedule: Q01DX001 (sc), vehicle: other 109 % of control | dose: 50.0 mg/kg/injection, schedule: Q01DX005 (sc), vehicle: Klucel (hydroxypropylcellulose) (HPC) 100 % of control | dose: 50.0 mg/kg/injection, schedule: Q01DX005 (sc), vehicle: other 98 % of control
active: dose: 4.0 mg/kg/injection, schedule: Q01DX009 (ip), vehicle: saline with Tween-80 157 % of control | [7] 152 % of control | [8] 164 % of control | [6] 174 % of control | [3] 183 % of control | [4] 171 % of control

COc1cc(OC)c(C(=O)/C=C/c2ccncc2)cc1C(=O)O
inactive: dose: 50.0 mg/kg/injection, schedule: Q01DX009 (ip), vehicle: suspension in saline 114 % of control and 119 % of control | dose: 100.0 mg/kg/injection, schedule: Q01DX009 (ip), vehicle: suspension in saline 123 % of control and 124 % of control

CS(=O)(=O)OC1COCC1OS(C)(=O)=O (configuration not stated)
inactive: dose: 100.0 mg/kg/injection, schedule: Q01DX001 (ip), vehicle: Klucel (hydroxypropylcellulose) (HPC) 95 % of control | dose: 100.0 mg/kg/injection, schedule: Q04DX003 (ip), vehicle: Klucel (hydroxypropylcellulose) (HPC) 99 % of control | dose: 200.0 mg/kg/injection, schedule: Q01DX001 (ip), vehicle: Klucel (hydroxypropylcellulose) (HPC) 95 % of control | dose: 200.0 mg/kg/injection, schedule: Q04DX003 (ip), vehicle: Klucel (hydroxypropylcellulose) (HPC) 100 % of control | dose: 400.0 mg/kg/injection, schedule: Q01DX001 (ip), vehicle: Klucel (hydroxypropylcellulose) (HPC) 100 % of control | dose: 400.0 mg/kg/injection, schedule: Q04DX003 (ip), vehicle: Klucel (hydroxypropylcellulose) (HPC) 107 % of control

O=S(=O)(c1ccc(Cl)cc1)N(CCCCCN(S(=O)(=O)c1ccc(Cl)cc1)S(=O)(=O)c1ccc(Cl)cc1)S(=O)(=O)c1ccc(Cl)cc1
inactive: dose: 30.0 mg/kg/injection, schedule: Q01DX005 (ip), vehicle: Klucel (hydroxypropylcellulose) (HPC) 94 % of control | dose: 60.0 mg/kg/injection, schedule: Q01DX005 (ip), vehicle: Klucel (hydroxypropylcellulose) (HPC) 105 % of control | dose: 120.0 mg/kg/injection, schedule: Q01DX005 (ip), vehicle: Klucel (hydroxypropylcellulose) (HPC) 96 % of control | dose: 240.0 mg/kg/injection, schedule: Q01DX005 (ip), vehicle: Klucel (hydroxypropylcellulose) (HPC) 93 % of control

C=C(C)c1nc(N)nc(Nc2ccccc2)n1
inactive: [9] 103 % of control | [10] 111 % of control | dose: 200.0 mg/kg/injection, schedule: Q01DX005 (ip), vehicle: Klucel (hydroxypropylcellulose) (HPC) 106 % of control

COc1ccc(/C=C(/C#N)c2ccc(Cl)cc2)cc1
inactive: [6] 92 % of control | [3] 92 % of control | [4] 95 % of control | [5] 93 % of control

Nc1c(Cl)ncnc1NCCN1CCOCC1
inactive: [9] 99 % of control | [10] 96 % of control

O=C(O)c1cc2c([N+](=O)[O-])cccc2[se]1
inactive: [1] 100 % of control | [2] 100 % of control | [11] 94 % of control and 97 % of control

Cc1cc(NS(=O)(=O)c2ccc(N=Nc3c(O)n(-c4ccccc4)n(-c4ccccc4)c3=O)cc2)no1
inactive: dose: 50.0 mg/kg/injection, schedule: Q01DX009 (ip), vehicle: Klucel (hydroxypropylcellulose) (HPC) 102 % of control | dose: 100.0 mg/kg/injection, schedule: Q01DX009 (ip), vehicle: Klucel (hydroxypropylcellulose) (HPC) 100 % of control | dose: 200.0 mg/kg/injection, schedule: Q01DX009 (ip), vehicle: Klucel (hydroxypropylcellulose) (HPC) 92 % of control

CCOC(=O)CC1=CS/C(=C(\C#N)C(=O)OCC)N1c1ccccc1
inactive: dose: 50.0 mg/kg/injection, schedule: Q01DX005 (ip), vehicle: saline with Tween-80 100 % of control | dose: 100.0 mg/kg/injection, schedule: Q01DX005 (ip), vehicle: saline with Tween-80 100 % of control | dose: 200.0 mg/kg/injection, schedule: Q01DX005 (ip), vehicle: saline with Tween-80 100 % of control

O=CC(=O)Cc1ccccc1
inactive: [11] 99 % of control and 98 % of control | dose: 100.0 mg/kg/injection, schedule: Q01DX009 (ip), vehicle: saline 105 % of control and 98 % of control | dose: 200.0 mg/kg/injection, schedule: Q01DX009 (ip), vehicle: saline 100 % of control and 92 % of control | dose: 400.0 mg/kg/injection, schedule: Q01DX009 (ip), vehicle: saline 99 % of control and 100 % of control

O=P(c1ccccc1)(c1ccccc1)c1ccccc1.O=P(c1ccccc1)(c1ccccc1)c1ccccc1.O=P(c1ccccc1)(c1ccccc1)c1ccccc1.O=P(c1ccccc1)(c1ccccc1)c1ccccc1.[O-][Cl+3]([O-])([O-])O.[O]=[U+2]=[O]
inactive: [7] 88 % of control | [8] 90 % of control

O=S1(=O)C2CCC(Cl)C1CCC2Cl (configuration not stated)
inactive: dose: 75.0 mg/kg/injection, schedule: Q04DX003 (ip), vehicle: Klucel (hydroxypropylcellulose) (HPC) 98 % of control | dose: 150.0 mg/kg/injection, schedule: Q04DX003 (ip), vehicle: Klucel (hydroxypropylcellulose) (HPC) 100 % of control
